Results from patent publication US4087520A, “Lowering blood pressure with new L-3-(3,4-dihydroxyphenyl)-2-methyl-alanine peptides” (Boehringer Mannheim GmbH, priority 1975, dated 1978).

System: blood pressure of rats with arterial high pressure
Experiment: Blood pressure depression in awake hypertensive rats (11-deoxycorticosteroneacetate plus common salt), direct arterial catheter measurement
Assay type: in vivo
Settings: hypertensive rats (10% sodium chloride in feed + 11-deoxycorticosteroneacetate), 0.6 millimole/kg perorally in 1% methyl cellulose, 4 hours after oral application, median of at least 6 measurements
Protocol: The test animals were rats into which arterial catheters had been implanted in a sterile operation via the arteria femoralis into the aorta. It was possible to measure the animals' blood pressure in the awake state directly in the blood with a transducer (Statham Transducer Type TP 23 D 6) via a carrier frequency measuring bridge. The animals were treated by administration of 10% common salt (sodium chloride) in their feed and, starting on the sixth week of their life, two injections per week of 5 mg at a time of 11-deoxycorticosteroneacetate per animal and thus developed an arterial high pressure in the median with values of […]. The test compounds were administered to the animals as follows: After the blood pressure control values had been determined, the animals received the test compound perorally suspended in 10 ml of 1% methyl cellusose solution in a dosage of 0.6 millimole/kg and measurements were taken 4 hours after oral application of the substance.
The values set forth in the Table represent in each case the median of at least 6 individual measurements of blood pressure depression (in mm Hg) per applied substance.

Compound | Blood Pressure Reduction [mm Hg]
C[C@@](Cc1ccc(O)c(O)c1)(NC(=O)CN)C(=O)O [Glycyl-L-3-(3,4-dihydroxyphenyl)-2-methyl-alanine] | 37 ± 9.1
C[C@H](N)C(=O)N[C@@](C)(Cc1ccc(O)c(O)c1)C(=O)O [L-Alanyl-L-3-(3,4-dihydroxyphenyl)-2-methyl-alanine] | 51 ± 6.0
C[C@H](N)C(=O)N[C@@H](C)C(=O)N[C@@](C)(Cc1ccc(O)c(O)c1)C(=O)O [L-Alanyl-L-alanyl-L-3-(3,4-dihydroxyphenyl)-2-methylalanine] | 58 ± 5.8
C[C@@](Cc1ccc(O)c(O)c1)(NC(=O)[C@@H](N)CO)C(=O)O [L-Seryl-L-3-(3,4-dihydroxyphenyl)-2-methyl-alanine] | 52 ± 7.5
C[C@](N)(Cc1ccc(O)c(O)c1)C(=O)O [α-Methyl-Dopa, L-3-(3,4-dihydroxyphenyl)-2-methyl-alanine] | 33 ± 4.9
